Measurements reported in US12414952B2 (Merck Sharp & Dohme LLC, priority 2018, dated 2025).

What was measured:
[1] = biological target: human A2a adenosine receptor (Homo sapiens (Human), UniProt P29274); test: A2a binding affinity using radioligand binding, Method (A); details: Method (A): [3H]SCH58261 filtration binding
Procedure, shortened: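 Membranes from HEK293 or CHO cells expressing human A2a were preincubated with compound for 15–30 min at room temperature. [3H]SCH58261 was then added (4 nM working dilution) in 50 mM Tris pH 7.4, 10 mM MgCl2, 0.005% Tween20 for 60 min at room temperature. Bound radioactivity after filtration was normalised to total and non-specific binding, and IC50 came from 4-parameter logistic fits.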

[2] = biological target: human A2b adenosine receptor (Homo sapiens (Human), UniProt P29275); test: A2b binding affinity, radioligand filtration binding assay; details: tritiated proprietary A2b antagonist, HEK293 membranes
Description: Measurement of A2b Binding Affinity
The reported affinity of the compounds of the invention for the human A2b adenosine receptor was determined experimentally using a radioligand filtration binding assay. This assay measures the amount of binding of a tritiated proprietary A2b receptor antagonist, in the presence and absence of a compound of the invention, to membranes made from HEK293 cells recombinantly expressing the human A2b adenosine receptor (Perkin Elmer, Cat. No. ES-013-C).
The filter plate was incubated for at least 1 h at 55° C. and allowed to dry. The bottom of the filter plate was then sealed with backing tape. […] The plates were then incubated for at least 20 min, and then the amount of radioactivity remaining in each well was determined using a TopCount® (Perkin Elmer) scintillation counter. After normalization to total and non-specific binding, the percent effect at each compound concentration was calculated. The plot of percent effect versus the log of compound concentration was analyzed electronically using a 4-parameter logistic fit based on the Levenberg-Marquardt algorithm to generate IC50 values.

human A2b adenosine receptor, sequence (P29275 whole entry): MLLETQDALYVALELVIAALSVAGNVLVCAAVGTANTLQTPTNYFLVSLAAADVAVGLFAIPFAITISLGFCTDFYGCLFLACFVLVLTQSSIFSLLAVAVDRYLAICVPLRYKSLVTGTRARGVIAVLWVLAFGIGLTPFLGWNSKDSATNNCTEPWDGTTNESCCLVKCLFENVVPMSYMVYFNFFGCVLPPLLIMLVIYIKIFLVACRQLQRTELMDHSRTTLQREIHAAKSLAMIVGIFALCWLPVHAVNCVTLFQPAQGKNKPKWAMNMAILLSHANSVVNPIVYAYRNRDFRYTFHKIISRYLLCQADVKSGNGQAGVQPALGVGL
human A2a adenosine receptor, sequence (P29274 whole entry): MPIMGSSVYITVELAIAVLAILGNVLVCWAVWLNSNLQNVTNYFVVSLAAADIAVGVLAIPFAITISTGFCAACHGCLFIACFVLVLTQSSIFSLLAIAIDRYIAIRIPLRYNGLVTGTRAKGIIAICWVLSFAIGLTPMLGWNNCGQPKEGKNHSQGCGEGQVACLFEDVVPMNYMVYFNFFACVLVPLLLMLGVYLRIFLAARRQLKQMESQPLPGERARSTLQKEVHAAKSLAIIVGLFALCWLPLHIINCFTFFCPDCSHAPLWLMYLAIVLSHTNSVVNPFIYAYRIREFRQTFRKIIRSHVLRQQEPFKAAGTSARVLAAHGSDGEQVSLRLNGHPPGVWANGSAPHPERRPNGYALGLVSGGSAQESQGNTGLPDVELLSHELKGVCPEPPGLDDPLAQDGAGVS

Structure (SMILES) | IC50 [1] | IC50 [2]
Cc1c(-c2ncco2)nc(N)n2nc(CCN3Cc4cn(CC(C)(C)O)nc4C3)nc12 [Example 17.4, 1-(5-(2-(5-amino-8-methyl-7-(oxazol-2-yl)-[1,2,4]triazolo[1,5-c]pyrimidin-2-yl)ethyl)-5,6-dihydropyrrolo[3,4-c]pyrazol-2(4H)-yl)-2-methylpropan-2-ol] | 9.4 nM | 1430 nM
Cc1c(-c2ncco2)nc(N)n2nc(CCN3Cc4cnn(C)c4C3)nc12 [Example 17.5, 8-methyl-2-(2-(1-methyl-4,6-dihydropyrrolo[3,4-c]pyrazol-5(1H)-yl)ethyl)-7-(oxazol-2-yl)-[1,2,4]triazolo[1,5-c]pyrimidin-5-amine] | 43.6 nM | 688 nM
Cc1cc2n(n1)CCN(CCc1nc3c(C)c(-c4ncco4)nc(N)n3n1)C2 [Example 17.6, 8-methyl-2-(2-(2-methyl-6,7-dihydropyrazolo[1,5-a]pyrazin-5(4H)-yl)ethyl)-7-(oxazol-2-yl)-[1,2,4]triazolo[1,5-c]pyrimidin-5-amine] | 16.3 nM | 677 nM
Cc1c(-c2ncco2)nc(N)n2nc(CCN3CCn4c(cnc4C45CC(C4)C5)C3)nc12 [Example 17.7, 2-(2-(3-(bicyclo[1.1.1]pentan-1-yl)-5,6-dihydroimidazo[1,5-a]pyrazin-7(8H)-yl)ethyl)-8-methyl-7-(oxazol-2-yl)-[1,2,4]triazolo[1,5-c]pyrimidin-5-amine] | 0.6 nM | 17.8 nM
Cc1c(-c2ncco2)nc(N)n2nc(CCN3CCc4nn(C5CC(F)(F)C5)cc4C3)nc12 [Example 17.9, 2-(2-(2-(3,3-difluorocyclobutyl)-2,4,6,7-tetrahydro-5H-pyrazolo[4,3-c]pyridin-5-yl)ethyl)-8-methyl-7-(oxazol-2-yl)-[1,2,4]triazolo[1,5-c]pyrimidin-5-amine] | 4.1 nM | 97 nM
Cc1c(-c2ncco2)nc(N)n2nc(CCN3CCc4c(cnn4C4CC(F)(F)C4)C3)nc12 [Example 17.10, 2-(2-(1-(3,3-difluorocyclobutyl)-1,4,6,7-tetrahydro-5H-pyrazolo[4,3-c]pyridin-5-yl)ethyl)-8-methyl-7-(oxazol-2-yl)-[1,2,4]triazolo[1,5-c]pyrimidin-5-amine] | 0.6 nM | 20.6 nM
Cc1c(-c2ncco2)nc(N)n2nc(CCN3CCc4nn(C5CCCC5)cc4C3)nc12 [Example 17.11, 2-(2-(2-cyclopentyl-2,4,6,7-tetrahydro-5H-pyrazolo[4,3-c]pyridin-5-yl)ethyl)-8-methyl-7-(oxazol-2-yl)-[1,2,4]triazolo[1,5-c]pyrimidin-5-amine] | 1.3 nM | 301 nM
Cc1c(-c2ncco2)nc(N)n2nc(CCN3CCc4c(cnn4C4CCCC4)C3)nc12 [Example 17.12, 2-(2-(1-cyclopentyl-1,4,6,7-tetrahydro-5H-pyrazolo[4,3-c]pyridin-5-yl)ethyl)-8-methyl-7-(oxazol-2-yl)-[1,2,4]triazolo[1,5-c]pyrimidin-5-amine] | 1.2 nM | 45 nM
Cc1c(-c2ncco2)nc(N)n2nc(CCN3CCc4c(nnn4C4CCCC4)C3)nc12 [Example 17.13, 2-(2-(1-cyclopentyl-1,4,6,7-tetrahydro-5H-[1,2,3]triazolo[4,5-c]pyridin-5-yl)ethyl)-8-methyl-7-(oxazol-2-yl)-[1,2,4]triazolo[1,5-c]pyrimidin-5-amine] | 0.7 nM | 8.1 nM
Cc1c(-c2ncco2)nc(N)n2nc(CCN3CCc4c(nnn4C4CC(F)(F)C4)C3)nc12 [Example 17.14, 2-(2-(1-(3,3-difluorocyclobutyl)-1,4,6,7-tetrahydro-5H-[1,2,3]triazolo[4,5-c]pyridin-5-yl)ethyl)-8-methyl-7-(oxazol-2-yl)-[1,2,4]triazolo[1,5-c]pyrimidin-5-amine] | 0.5 nM | 41.7 nM
